In patent publication US20220242879A1, “FUSED HETEROCYCLE DERIVATIVES” (Janssen Sciences Ireland Unlimited Company, priority 2019, published 2022) one finds CC50 and EC50 data, which are given here for 22 compounds.

Each structure is given as a SMILES string. Where only a bound is given, the exact number is not on record here.

Data set [1] in a line: Cytotoxicity, ATPlite Luminescence Assay. Type of data set: cell-based, human. Conditions: human, HepG2.117 cells; mean value; cells incubated for 3 days, viability by ATPlite; read-out: TOX-HepC2.117 CC50. On the procedure: Cytotoxicity of the compounds was tested using HepG2 or HepG2.117 cells, incubated for 3 days in the presence of compounds. The viability of the cells was assessed using the PERKIN ELMER ATPlite Luminescence Assay System.”

The next data set deals with HBV. Kind of data set: Anti-HBV activity, HepG2.117 cell line, intracellular HBV DNA by real-time PCR. Type of data set: cell-based, Hepatitis B virus. Conditions: Hepatitis B virus, 72 h; mean value; HepG2.117 cells, 3 days of treatment, intracellular HBV DNA; read-out: HBV-AVE-HepG2.117 EC50. Here is the method: The anti HBV activity was measured using the HepG2.117 cell line, a stable, inducibly HBV producing cell line, which replicates HBV in the absence of doxicycline (Tet-off system). The HepG2 cell line is available from ATCC® under number HB-8065. Transfection of the HepG2 cell line can be as described in Sun and Nassal 2006 Journal of Hepatology 45 (2006) 636-645 “Stable HepG2- and Huh7-based human hepatoma cell lines for efficient regulated expression of infectious hepatitis B virus”.
For the antiviral assay, HBV replication was induced, followed by a treatment with serially diluted compound in 96-well plates. After 3 days of treatment, the antiviral activity was determined by, quantification of intracellular HBV DNA using real-time PCR and an HBV specific primer set and probe.

Turning to `CNC(=O)[C@H]1Cc2conc2-c2c3c(nn2C1)CCN(C(=O)c1ccc(Cl)c(Cl)c1)C3` (single isomer, unassigned) [Compound 31, (5*S)-11-(3,4-Dichlorobenzoyl)-N-methyl-5,6,9,10,11,12-hexahydro-4H-[1,2]oxazolo[3,4-c]pyrido[4′,3′:3,4]pyrazolo[1,5-a]azepine-5-carboxamide], the cytotoxic concentration (CC50) at 3 days in data set [1] is greater than 50 µM. Also, the EC50 in the data set on HBV came to 0.047 µM.

With `O=C(c1ccc(Cl)c(Cl)c1)N1CCc2nn3c(c2C1)-c1ncoc1CCC3` [Compound 40, (3,4-Dichlorophenyl)(4,5,6,9,10,12-hexahydro-11H-[1,3]oxazolo[4,5-c]pyrido-[4′,3′:3,4]pyrazolo[1,5-a]azepin-11-yl)methanone], the CC50 at 3 days in data set [1] was greater than 50 µM. Moreover, the EC50 in the data set with HBV is 0.499 µM.

Consider `C=C1Cc2c(noc2N)-c2c3c(nn2C1)CCN(C(=O)c1ccc(Cl)c(Cl)c1)C3` [Compound 23, (3-Amino-5-methylidene-5,6,9,10-tetrahydro-4H-[1,2]oxazolo[3,4-c]pyrido[4′,3′:3,4]pyrazolo-[1,5-a]azepin-11(12H)-yl)(3,4-dichlorophenyl)methanone], for which the cytotoxic concentration (CC50) at 3 days in data set [1] was 21.2 µM. Moreover, in the data set on HBV, the EC50 came out at 0.172 µM.

`Cc1onc2c1CCCn1nc3c(c1-2)CN(C(=O)c1ccc(Cl)c(Cl)c1)CC3` [Compound 12, (3,4-Dichlorophenyl)(3-methyl-5,6,9,10-tetrahydro-4H-[1,2]oxazolo[3,4-c]pyrido[4′,3′:3,4]-pyrazolo[1,5-a]azepin-11(12H)-yl)methanone]: the half-maximal cytotoxic concentration (CC50) at 3 days in data set [1] was 31.1 µM. Moreover, the EC50 with HBV is 0.835 µM.

For `C[C@@H]1Cc2nn3c(c2CN1C(=O)c1ccc(Cl)c(Cl)c1)-c1nocc1CCC3` [Compound 14, (3,4-dichlorophenyl)[(10R)-10-methyl-5,6,9,10-tetrahydro-4H-[1,2]oxazolo-[3,4-c]pyrido[4′,3′:3,4]pyrazolo[1,5-a]azepin-11(12H)-yl]methanone], the CC50 at 3 days in data set [1] came to 39.2 µM. Besides, the 50% effective concentration (EC50) in the data set with HBV was found to be 0.213 µM.

`O=C(c1ccc(Cl)c(Cl)c1)N1CCc2nn3c(c2C1)-c1noc(C(F)(F)F)c1CCC3` [Compound 16, (3,4-Dichlorophenyl)[3-(trifluoromethyl)-5,6,9,10-tetrahydro-4H-[1,2]oxazolo[3,4-c]pyrido[4′,3′:3,4]pyrazolo[1,5-a]azepin-11(12H)-yl]methanone]: the CC50 at 3 days in data set [1] was greater than 50 µM. Moreover, in the data set with HBV, the EC50 was found to be 1.62 µM.

As for `Nc1onc2c1CC(O)(CO)Cn1nc3c(c1-2)CN(C(=O)c1ccc(Cl)c(Cl)c1)CC3` (centres unmarked) [Compound 24, [3-Amino-5-hydroxy-5-(hydroxymethyl)-5,6,9,10-tetrahydro-4H-[1,2]oxazolo[3,4-c]pyrido-[4′,3′:3,4]pyrazolo[1,5-a]azepin-11(12H)-yl](3,4-dichlorophenyl)methanone], the cytotoxic concentration (CC50) at 3 days in data set [1] was greater than 50 µM. In the data set with HBV, the EC50 is 1.59 µM.

In the case of `O=C(c1ccc(Cl)c(Cl)c1)N1CCc2nn3c(c2C1)-c1nocc1CC(O)C3` (centres unmarked) [Compound 19, (3,4-Dichlorophenyl)(5-hydroxy-5,6,9,10-tetrahydro-4H-isoxazolo[3,4-c]pyrido[4′,3′:3,4]pyrazolo[1,5-a]azepin-11(12H)-yl)methanone], in data set [1], the CC50 at 3 days is greater than 50 µM. In addition, the concentration giving a half-maximal response (EC50) in the data set on HBV was found to be 0.263 µM.

For the compound `O=C(c1ccc(Cl)c(Cl)c1)N1CCc2nn3c(c2C1)-c1nocc1CC3` [Compound 1, (3,4-Dichlorophenyl)(4,5,8,9-tetrahydro[1,2]oxazolo[3,4-c]pyrazolo[1,5-a:4,3-c′]dipyridin-10(11H)-yl)methanone], the CC50 at 3 days in data set [1] is greater than 50 µM. Also, the half-maximal effective concentration (EC50) in the data set on HBV is 1.13 µM.

With `O=C(c1ccc(Cl)c(Cl)c1)N1CCc2nn3c(c2C1)-c1n[nH]cc1CC(CO)C3` (centres unmarked) [Compound 43, (3,4-Dichlorophenyl)[5-(hydroxymethyl)-2,5,6,9,10,12-hexahydropyrazolo[3,4-c]pyrido-[4′,3′:3,4]pyrazolo[1,5-a]azepin-11(41)-yl]methanone], the CC50 at 3 days in data set [1] was greater than 50 µM. Further, the 50% effective concentration (EC50) with HBV is 2.32 µM.

For the compound `O=C(c1ccc(Cl)c(Cl)c1)N1CCc2nn3c(c2C1)-c1nocc1CC(CO)C3` (centres unmarked) [Compound 27], the CC50 at 3 days in data set [1] was greater than 50 µM. Besides, the 50% effective concentration (EC50) in the data set with HBV was 0.393 µM.

As for `O=C(c1ccc(Cl)c(Cl)c1)N1CCc2nn3c(c2C1)-c1nocc1CC(O)(CO)C3` (centres unmarked) [Compound 18, (3,4-Dichlorophenyl)[5-hydroxy-5-(hydroxymethyl)-5,6,9,10-tetrahydro-4H-[1,2]oxazolo-[3,4-c]pyrido[4′,3′:3,4]pyrazolo[1,5-a]azepin-11(12H)-yl]methanone], the CC50 at 3 days in data set [1] was greater than 50 µM. In the data set on HBV, the EC50 came out at 1.05 µM.

On to `O=C(c1ccc(Cl)c(Cl)c1)N1CCc2nn3c(c2C1)-c1nocc1CC(C(=O)N1CCOCC1)C3` (centres unmarked) [Compound 38, [1-(3,4-Dichlorobenzoyl)-5,6,9,10,11,12-hexahydro-4H-[1,2]oxazolo[3,4-c]pyrido[4′,3′:3,4]-pyrazolo[1,5-a]azepin-5-yl](morpholin-4-yl)methanone], for which the CC50 at 3 days in data set [1] was greater than 50 µM. Also, the EC50 with HBV stood at 1.44 µM.

For `Cc1[nH]nc2c1CCn1nc3c(c1-2)CN(C(=O)c1ccc(Cl)c(Cl)c1)CC3` [Compound 7, (3,4-Dichlorophenyl)(3-methyl-2,4,5,8,9,11-hexahydro-10H-pyrazolo[3,4-c]pyrazolo-[1,5-a:4,3-c′]dipyridin-10-yl)methanone], the CC50 at 3 days in data set [1] is greater than 50 µM. Further, in the data set on HBV, the half-maximal effective concentration (EC50) was found to be 1.29 µM.

With `O=C(c1ccc(Cl)c(Cl)c1)N1CCc2nn3c(c2C1)-c1noc(-c2ccccc2)c1CC3` [Compound 4, (3,4-Dichlorophenyl)(3-phenyl-4,5,8,9-tetrahydro[1,2]oxazolo[3,4-c]pyrazolo-[1,5-a:4,3-c′]dipyridin-10(11H)-yl)methanone], the 50% cytotoxic concentration (CC50) at 3 days in data set [1] was greater than 10 µM. Further, the half-maximal effective concentration (EC50) in the data set on HBV is greater than 10 µM.

In the case of `Cn1cc2c(n1)-c1c3c(nn1CCC2)CCN(C(=O)c1ccc(Cl)c(Cl)c1)C3` [Compound 42, (3,4-Dichlorophenyl)(2-methyl-2,5,6,9,10,12-hexahydropyrazolo[3,4-c]pyrido[4′,3′:3,4]-pyrazolo[1,5-a]azepin-11(4H)-yl)methanone], the cytotoxic concentration (CC50) at 3 days in data set [1] is greater than 50 µM. In the data set with HBV, the 50% effective concentration (EC50) was greater than 48.8 µM.

For the compound `Cn1cnc2c1CCCn1nc3c(c1-2)CN(C(=O)c1ccc(Cl)c(Cl)c1)CC3` [Compound 45, (3,4-Dichlorophenyl)(3-methyl-4,5,6,9,10,12-hexahydroimidazo[4,5-c]pyrido[4′,3′:3,4]pyrazolo-[1,5-a]azepin-11(3H)-yl)methanone], the cytotoxic concentration (CC50) at 3 days in data set [1] was greater than 50 µM. Besides, the EC50 with HBV is 4.97 µM.

As to `O=C(NCCO)C1Cc2conc2-c2c3c(nn2C1)CCN(C(=O)c1ccc(Cl)c(Cl)c1)C3` (centres unmarked) [Compound 34, 11-(3,4-Dichlorobenzoyl)-N-(2-hydroxyethyl)-5,6,9,10,11,12-hexahydro-4H-[1,2]oxazolo-[3,4-c]pyrido[4′,3′:3,4]pyrazolo[1,5-a]azepine-5-carboxamide], the half-maximal cytotoxic concentration (CC50) at 3 days in data set [1] was greater than 50 µM. The EC50 with HBV amounted to 0.358 µM.

For the compound `O=C(c1ccc(Cl)c(Cl)c1)N1CCc2nn3c(c2C1)-c1ncsc1CCC3` [Compound 46, (3,4-Dichlorophenyl)(4,5,6,9,10,12-hexahydro-11H-pyrido[4′,3′:3,4]pyrazolo[1,5-a][1,3]-thiazolo[4,5-c]azepin-11-yl)methanone], the CC50 at 3 days in data set [1] came to 27.1 µM. Moreover, the concentration for a half-maximal effect (EC50) with HBV is 0.236 µM.

`O=C(c1ccc(Cl)c(Cl)c1)N1CCc2nn3c(c2C1)-c1n[nH]cc1CCC3` [Compound 41, (3,4-Dichlorophenyl)(2,5,6,9,10,12-hexahydropyrazolo[3,4-c]pyrido[4′,3′,3,4]pyrazolo[1,5-a]-azepin-11(4H)-yl)methanone]: the CC50 at 3 days in data set [1] was determined as 25.6 µM. The EC50 in the data set with HBV amounted to 0.749 µM.

Consider `O=C(O)C1Cc2conc2-c2c3c(nn2C1)CCN(C(=O)c1ccc(Cl)c(Cl)c1)C3` (centres unmarked) [Compound 29, 11-(3,4-Dichlorobenzoyl)-5,6,9,10,11,12-hexahydro-4H-[1,2]oxazolo[3,4-c]pyrido[4′,3′:3,4]-pyrazolo[1,5-a]azepine-5-carboxylic Acid], for which the cytotoxic concentration (CC50) at 3 days in data set [1] is greater than 50 µM. In addition, the EC50 in the data set on HBV is 15.5 µM.

As to `Nc1nc2c(s1)CCCn1nc3c(c1-2)CN(C(=O)c1ccc(Cl)c(Cl)c1)CC3` [Compound 51, (2-amino-4,5,6,9,10,12-hexahydro-11H-pyrido[4′,3′:3,4]pyrazolo[1,5-a]thiazolo[4,5-c]azepin-11-yl)(3,4-dichlorophenyl)methanone], the CC50 at 3 days in data set [1] is greater than 50 µM. Further, in the data set on HBV, the EC50 is greater than 10 µM.

A word on the CC50: it is the concentration giving 50% cytotoxicity. One may read the EC50 as the concentration giving half of the maximal effect.
